# Source: ChEMBL document CHEMBL3813649, “The influence of halogen substituents on the biological properties of sulfur-containing flavonoids” (2016)
# Tested on: Staphylococcus aureus
# Experiment: Antibacterial activity against Staphylococcus aureus ATCC 25923 after 18 hrs by microbroth dilution assay
# Format: functional
# Conditions: not given
row,MIC [uL/ml],SMILES
1,250,C[S+](C)[O-] [DIMETHYL SULFOXIDE]

# Same assay, conditions: Staphylococcus aureus, ATCC 25923, 18 h; read-out: MIC
row,SMILES,MIC [µg/mL]
1,CCN(CC)[c+]1sc2c(s1)C(c1ccccc1)Oc1ccc(Cl)cc1-2.F[B-](F)(F)F (stereo not drawn),3.9
2,CCN(CC)[c+]1sc2c(s1)C(c1ccc(F)cc1)Oc1ccc(Cl)cc1-2.F[B-](F)(F)F (stereo not drawn),1.95
3,CCN(CC)[c+]1sc2c(s1)C(c1ccc(F)cc1)Oc1ccccc1-2.F[B-](F)(F)F (stereo not drawn),7.81
4,CC1(C)S[C@@H]2[C@H](NC(=O)[C@H](N)c3ccccc3)C(=O)N2[C@H]1C(=O)O [AMPICILLIN],7.81
5,CCN(CC)[c+]1sc2c(s1)C(c1ccc(F)cc1)Oc1ccc(F)cc1-2.F[B-](F)(F)F (stereo not drawn),7.81
6,CCN(CC)[c+]1sc2c(s1)C(c1ccccc1)Oc1ccc(F)cc1-2.F[B-](F)(F)F (stereo not drawn),7.81
7,CCN(CC)[c+]1sc2c(s1)C(c1ccc(Cl)cc1)Oc1ccc(F)cc1-2.F[B-](F)(F)F (stereo not drawn),3.9
8,CCN(CC)[c+]1sc2c(s1)C(c1ccccc1)Oc1ccccc1-2.F[B-](F)(F)F (stereo not drawn),62.5
9,CCN(CC)[c+]1sc2c(s1)C(c1ccc(I)cc1)Oc1ccc(F)cc1-2.F[B-](F)(F)F (stereo not drawn),1.95
10,CCN(CC)[c+]1sc2c(s1)C(c1ccc(Cl)cc1)Oc1ccccc1-2.F[B-](F)(F)F (stereo not drawn),3.9
11,NC[C@H]1O[C@H](O[C@H]2[C@H](O)[C@@H](O[C@H]3O[C@H](CO)[C@@H](O)[C@H](N)[C@H]3O)[C@H](N)C[C@@H]2N)[C@H](O)[C@@H](O)[C@@H]1O [KANAMYCIN],1.95

# The remaining lines, values ahead:
row,MIC [µg/mL],SMILES
1,1.95,CCN(CC)[c+]1sc2c(s1)C(c1ccc(Br)cc1)Oc1ccc(F)cc1-2.F[B-](F)(F)F (stereo not drawn)
2,0.24,CCN(CC)[c+]1sc2c(s1)C(c1ccc(I)cc1)Oc1ccc(Cl)cc1-2.F[B-](F)(F)F (stereo not drawn)
3,0.24,CCN(CC)[c+]1sc2c(s1)C(c1ccc(Cl)cc1)Oc1ccc(Cl)cc1-2.F[B-](F)(F)F (stereo not drawn)
4,1.95,CCN(CC)[c+]1sc2c(s1)C(c1ccc(Br)cc1)Oc1ccccc1-2.F[B-](F)(F)F (stereo not drawn)
5,0.97,CCN(CC)[c+]1sc2c(s1)C(c1ccc(I)cc1)Oc1ccccc1-2.F[B-](F)(F)F (stereo not drawn)
6,0.24,CCN(CC)[c+]1sc2c(s1)C(c1ccc(Br)cc1)Oc1ccc(Cl)cc1-2.F[B-](F)(F)F (stereo not drawn)

# Tested on: Escherichia coli
# Experiment: Antibacterial activity against Escherichia coli ATCC 25922 after 18 hrs by microbroth dilution assay
# Format: functional
# Conditions: not given
row,MIC [uL/ml],SMILES
1,125,C[S+](C)[O-] [DIMETHYL SULFOXIDE]

# Same assay, conditions: Escherichia coli, ATCC 25922, 18 h; read-out: MIC
row,SMILES,MIC [µg/mL]
1,CCN(CC)[c+]1sc2c(s1)C(c1ccccc1)Oc1ccc(Cl)cc1-2.F[B-](F)(F)F (stereo not drawn),62.5
2,CCN(CC)[c+]1sc2c(s1)C(c1ccc(F)cc1)Oc1ccc(Cl)cc1-2.F[B-](F)(F)F (stereo not drawn),15.6
3,CCN(CC)[c+]1sc2c(s1)C(c1ccc(F)cc1)Oc1ccccc1-2.F[B-](F)(F)F (stereo not drawn),125
4,CC1(C)S[C@@H]2[C@H](NC(=O)[C@H](N)c3ccccc3)C(=O)N2[C@H]1C(=O)O [AMPICILLIN],7.81
5,CCN(CC)[c+]1sc2c(s1)C(c1ccc(F)cc1)Oc1ccc(F)cc1-2.F[B-](F)(F)F (stereo not drawn),15.6
6,CCN(CC)[c+]1sc2c(s1)C(c1ccccc1)Oc1ccc(F)cc1-2.F[B-](F)(F)F (stereo not drawn),62.5
7,CCN(CC)[c+]1sc2c(s1)C(c1ccc(Cl)cc1)Oc1ccc(F)cc1-2.F[B-](F)(F)F (stereo not drawn),15.6
8,CCN(CC)[c+]1sc2c(s1)C(c1ccccc1)Oc1ccccc1-2.F[B-](F)(F)F (stereo not drawn),62.5
9,CCN(CC)[c+]1sc2c(s1)C(c1ccc(I)cc1)Oc1ccc(F)cc1-2.F[B-](F)(F)F (stereo not drawn),3.9
10,CCN(CC)[c+]1sc2c(s1)C(c1ccc(Cl)cc1)Oc1ccccc1-2.F[B-](F)(F)F (stereo not drawn),125
11,NC[C@H]1O[C@H](O[C@H]2[C@H](O)[C@@H](O[C@H]3O[C@H](CO)[C@@H](O)[C@H](N)[C@H]3O)[C@H](N)C[C@@H]2N)[C@H](O)[C@@H](O)[C@@H]1O [KANAMYCIN],7.81

# Next, values leading:
row,MIC [µg/mL],SMILES
1,7.81,CCN(CC)[c+]1sc2c(s1)C(c1ccc(Br)cc1)Oc1ccc(F)cc1-2.F[B-](F)(F)F (stereo not drawn)
2,1.95,CCN(CC)[c+]1sc2c(s1)C(c1ccc(I)cc1)Oc1ccc(Cl)cc1-2.F[B-](F)(F)F (stereo not drawn)
3,3.9,CCN(CC)[c+]1sc2c(s1)C(c1ccc(Cl)cc1)Oc1ccc(Cl)cc1-2.F[B-](F)(F)F (stereo not drawn)
4,62.5,CCN(CC)[c+]1sc2c(s1)C(c1ccc(Br)cc1)Oc1ccccc1-2.F[B-](F)(F)F (stereo not drawn)
5,31.2,CCN(CC)[c+]1sc2c(s1)C(c1ccc(I)cc1)Oc1ccccc1-2.F[B-](F)(F)F (stereo not drawn)
6,3.9,CCN(CC)[c+]1sc2c(s1)C(c1ccc(Br)cc1)Oc1ccc(Cl)cc1-2.F[B-](F)(F)F (stereo not drawn)

# Tested on: Staphylococcus aureus
# Experiment: Bactericidal activity against Staphylococcus aureus ATCC 25923 after 18 hrs by microbroth dilution assay
# Format: functional
# Conditions: ATCC 25923, 18 h
row,SMILES,MBC [µg/mL]
1,CCN(CC)[c+]1sc2c(s1)C(c1ccc(Br)cc1)Oc1ccc(F)cc1-2.F[B-](F)(F)F (stereo not drawn),7.81
2,CCN(CC)[c+]1sc2c(s1)C(c1ccccc1)Oc1ccc(Cl)cc1-2.F[B-](F)(F)F (stereo not drawn),3.9
3,CCN(CC)[c+]1sc2c(s1)C(c1ccc(I)cc1)Oc1ccc(Cl)cc1-2.F[B-](F)(F)F (stereo not drawn),0.48
4,CCN(CC)[c+]1sc2c(s1)C(c1ccc(Cl)cc1)Oc1ccc(Cl)cc1-2.F[B-](F)(F)F (stereo not drawn),0.48
5,CCN(CC)[c+]1sc2c(s1)C(c1ccc(Br)cc1)Oc1ccccc1-2.F[B-](F)(F)F (stereo not drawn),1.95
6,CCN(CC)[c+]1sc2c(s1)C(c1ccc(F)cc1)Oc1ccc(Cl)cc1-2.F[B-](F)(F)F (stereo not drawn),3.9
7,CCN(CC)[c+]1sc2c(s1)C(c1ccc(F)cc1)Oc1ccccc1-2.F[B-](F)(F)F (stereo not drawn),7.81
8,CCN(CC)[c+]1sc2c(s1)C(c1ccc(F)cc1)Oc1ccc(F)cc1-2.F[B-](F)(F)F (stereo not drawn),3.9
9,CCN(CC)[c+]1sc2c(s1)C(c1ccccc1)Oc1ccc(F)cc1-2.F[B-](F)(F)F (stereo not drawn),15.6
10,CCN(CC)[c+]1sc2c(s1)C(c1ccc(Cl)cc1)Oc1ccc(F)cc1-2.F[B-](F)(F)F (stereo not drawn),7.81
11,CCN(CC)[c+]1sc2c(s1)C(c1ccccc1)Oc1ccccc1-2.F[B-](F)(F)F (stereo not drawn),250
12,CCN(CC)[c+]1sc2c(s1)C(c1ccc(I)cc1)Oc1ccc(F)cc1-2.F[B-](F)(F)F (stereo not drawn),0.97
13,CCN(CC)[c+]1sc2c(s1)C(c1ccc(Cl)cc1)Oc1ccccc1-2.F[B-](F)(F)F (stereo not drawn),7.81
14,CCN(CC)[c+]1sc2c(s1)C(c1ccc(I)cc1)Oc1ccccc1-2.F[B-](F)(F)F (stereo not drawn),1.95
15,NC[C@H]1O[C@H](O[C@H]2[C@H](O)[C@@H](O[C@H]3O[C@H](CO)[C@@H](O)[C@H](N)[C@H]3O)[C@H](N)C[C@@H]2N)[C@H](O)[C@@H](O)[C@@H]1O [KANAMYCIN],1.95
16,CCN(CC)[c+]1sc2c(s1)C(c1ccc(Br)cc1)Oc1ccc(Cl)cc1-2.F[B-](F)(F)F (stereo not drawn),3.9

# Tested on: Escherichia coli
# Experiment: Bactericidal activity against Escherichia coli ATCC 25922 after 18 hrs by microbroth dilution assay
# Format: functional
# Conditions: ATCC 25922, 18 h
row,SMILES,MBC [µg/mL]
1,CCN(CC)[c+]1sc2c(s1)C(c1ccc(Br)cc1)Oc1ccc(F)cc1-2.F[B-](F)(F)F (stereo not drawn),15.6
2,CCN(CC)[c+]1sc2c(s1)C(c1ccccc1)Oc1ccc(Cl)cc1-2.F[B-](F)(F)F (stereo not drawn),125
3,CCN(CC)[c+]1sc2c(s1)C(c1ccc(I)cc1)Oc1ccc(Cl)cc1-2.F[B-](F)(F)F (stereo not drawn),0.97
4,CCN(CC)[c+]1sc2c(s1)C(c1ccc(Cl)cc1)Oc1ccc(Cl)cc1-2.F[B-](F)(F)F (stereo not drawn),3.9
5,CCN(CC)[c+]1sc2c(s1)C(c1ccc(Br)cc1)Oc1ccccc1-2.F[B-](F)(F)F (stereo not drawn),125
6,CCN(CC)[c+]1sc2c(s1)C(c1ccc(F)cc1)Oc1ccc(Cl)cc1-2.F[B-](F)(F)F (stereo not drawn),15.6
7,CCN(CC)[c+]1sc2c(s1)C(c1ccc(F)cc1)Oc1ccccc1-2.F[B-](F)(F)F (stereo not drawn),125
8,CCN(CC)[c+]1sc2c(s1)C(c1ccc(F)cc1)Oc1ccc(F)cc1-2.F[B-](F)(F)F (stereo not drawn),125
9,CCN(CC)[c+]1sc2c(s1)C(c1ccccc1)Oc1ccc(F)cc1-2.F[B-](F)(F)F (stereo not drawn),125
10,CCN(CC)[c+]1sc2c(s1)C(c1ccc(Cl)cc1)Oc1ccc(F)cc1-2.F[B-](F)(F)F (stereo not drawn),15.6
11,CCN(CC)[c+]1sc2c(s1)C(c1ccccc1)Oc1ccccc1-2.F[B-](F)(F)F (stereo not drawn),250
12,CCN(CC)[c+]1sc2c(s1)C(c1ccc(I)cc1)Oc1ccc(F)cc1-2.F[B-](F)(F)F (stereo not drawn),7.81
13,CCN(CC)[c+]1sc2c(s1)C(c1ccc(Cl)cc1)Oc1ccccc1-2.F[B-](F)(F)F (stereo not drawn),125
14,CCN(CC)[c+]1sc2c(s1)C(c1ccc(I)cc1)Oc1ccccc1-2.F[B-](F)(F)F (stereo not drawn),62.5
15,NC[C@H]1O[C@H](O[C@H]2[C@H](O)[C@@H](O[C@H]3O[C@H](CO)[C@@H](O)[C@H](N)[C@H]3O)[C@H](N)C[C@@H]2N)[C@H](O)[C@@H](O)[C@@H]1O [KANAMYCIN],7.81
16,CCN(CC)[c+]1sc2c(s1)C(c1ccc(Br)cc1)Oc1ccc(Cl)cc1-2.F[B-](F)(F)F (stereo not drawn),1.95
